Test results: patent US9840513B2 (AbbVie S.à.r.l., priority 2015, dated 2017)

Target: T1, F508delCFTR cell surface expression in CFBE41o-F508delCFTR-HRP cells (Homo sapiens, UniProt P13569, DEL508-508)
T1 construct: fused on or other part: Horseradish peroxidase (HRP) reporter inserted in the fourth exofacial (extracellular) loop of CFTR; expression is doxycycline-inducible
Test: Cell Surface Expression-Horse Radish Peroxidase (CSE-HRP) Assay
Format: cell-based
Settings: for EC50: CFBE41o-F508delCFTR-HRP cells, 18-24 hours at 33° C., 8-point curve, highest concentration 20 μM; for Maximum % activity (%): maximum at any tested concentration, normalized to on-plate positive control (3 μM)
How it was run: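 Correctors incubated 18-24 h at 33 °C on doxycycline-induced (0.5 μg/mL, 72 h) CFBE41o-F508delCFTR-HRP cells, 3-fold series from 20 μM. After DPBS washes, luminol luminescence read; activity expressed relative to DMSO and a 3 μM positive control, EC50 fitted from triplicate plates.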

T1 sequence (P13569 with tags, fused parts or gaps DEL508-508 limits assumed): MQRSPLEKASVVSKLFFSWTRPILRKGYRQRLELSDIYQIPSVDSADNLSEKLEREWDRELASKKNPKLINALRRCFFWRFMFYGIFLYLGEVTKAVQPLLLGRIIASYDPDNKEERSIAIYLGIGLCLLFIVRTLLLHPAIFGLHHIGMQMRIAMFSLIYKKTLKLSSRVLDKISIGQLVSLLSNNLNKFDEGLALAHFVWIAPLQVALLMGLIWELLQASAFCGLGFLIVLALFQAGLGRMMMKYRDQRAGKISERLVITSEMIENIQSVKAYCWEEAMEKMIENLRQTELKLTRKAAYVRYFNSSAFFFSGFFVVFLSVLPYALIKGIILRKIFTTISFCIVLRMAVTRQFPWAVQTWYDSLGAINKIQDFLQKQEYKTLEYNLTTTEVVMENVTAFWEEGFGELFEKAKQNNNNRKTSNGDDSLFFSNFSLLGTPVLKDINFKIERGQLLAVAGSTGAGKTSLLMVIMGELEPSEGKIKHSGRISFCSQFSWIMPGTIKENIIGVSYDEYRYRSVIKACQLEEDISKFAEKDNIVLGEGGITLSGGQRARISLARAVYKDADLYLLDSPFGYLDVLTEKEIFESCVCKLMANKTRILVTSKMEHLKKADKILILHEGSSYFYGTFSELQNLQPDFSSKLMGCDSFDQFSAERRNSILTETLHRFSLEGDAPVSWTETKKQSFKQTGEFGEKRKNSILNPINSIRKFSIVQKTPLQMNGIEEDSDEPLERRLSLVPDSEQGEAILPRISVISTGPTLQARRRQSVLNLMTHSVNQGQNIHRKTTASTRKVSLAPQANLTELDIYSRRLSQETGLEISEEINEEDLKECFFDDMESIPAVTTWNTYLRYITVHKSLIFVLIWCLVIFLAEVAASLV
T1 sequence (P13569 919-1480 limits assumed, stated change not applied): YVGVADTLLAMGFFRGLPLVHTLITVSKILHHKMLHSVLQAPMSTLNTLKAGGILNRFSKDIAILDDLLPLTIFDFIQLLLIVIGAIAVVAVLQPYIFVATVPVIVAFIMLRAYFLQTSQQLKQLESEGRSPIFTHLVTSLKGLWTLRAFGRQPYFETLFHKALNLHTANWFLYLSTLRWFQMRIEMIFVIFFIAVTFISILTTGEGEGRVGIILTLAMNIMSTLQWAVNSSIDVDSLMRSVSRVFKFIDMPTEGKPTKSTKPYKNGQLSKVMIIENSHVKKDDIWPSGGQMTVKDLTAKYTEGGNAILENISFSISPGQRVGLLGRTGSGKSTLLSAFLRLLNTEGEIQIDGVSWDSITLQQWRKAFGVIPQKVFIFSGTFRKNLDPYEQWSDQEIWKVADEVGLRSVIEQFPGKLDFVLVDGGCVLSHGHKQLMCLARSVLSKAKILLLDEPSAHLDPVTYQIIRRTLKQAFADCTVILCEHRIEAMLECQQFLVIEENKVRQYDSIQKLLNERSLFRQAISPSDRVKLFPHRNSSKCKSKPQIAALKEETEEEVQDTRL

Molecule	EC50 [nM]	Maximum % activity (%)
COc1ccc2c(c1)O[C@@H](c1ccc(C(=O)N3CCOC(CO)C3)cn1)C[C@H]2NC(=O)[C@@]1(C)COc2cc3c(cc21)OC(F)(F)O3 (stereo partly drawn) [Example 237, (7R)-2,2-difluoro-N-[(2R,4R)-2-{5-[2-(hydroxymethyl)morpholine-4-carbonyl]pyridin-2-yl}-7-methoxy-3,4-dihydro-2H-1-benzopyran-4-yl]-7-methyl-6,7-dihydro-2H-furo[2,3-f][1,3]benzodioxole-7-carboxamide]	50	121
C[C@]1(C(=O)N[C@@H]2C[C@H](C3CCN(CC(=O)O)CC3)Oc3cc(OC(F)(F)F)ccc32)COc2cc3c(cc21)OC(F)(F)O3 [Example 187, {4-[(2R,4R)-4-{[(7R)-2,2-difluoro-7-methyl-6,7-dihydro-2H-furo[2,3-f][1,3]benzodioxole-7-carbonyl]amino}-7-(trifluoromethoxy)-3,4-dihydro-2H-1-benzopyran-2-yl]piperidin-1-yl}acetic acid]	2540	129
C[C@]1(C(=O)N[C@@H]2C[C@H]([C@H]3CC[C@H](C(=O)N4CCOCC4CO)CC3)Oc3cc(OC(F)(F)F)ccc32)COc2cc3c(cc21)OC(F)(F)O3 (stereo partly drawn) [Example 257, (7R)-2,2-difluoro-N-[(2R,4R)-2-{trans-4-[3-(hydroxymethyl)morpholine-4-carbonyl]cyclohexyl}-7-(trifluoromethoxy)-3,4-dihydro-2H-1-benzopyran-4-yl]-7-methyl-6,7-dihydro-2H-furo[2,3-f][1,3]benzodioxole-7-carboxamide]	70	170
C[C@]1(C(=O)Nc2cc(-c3ccccc3)cn(C[C@@H](O)CO)c2=O)COc2cc3c(cc21)OC(F)(F)O3 [Example 100, (7R)—N-{1-[(2R)-2,3-dihydroxypropyl]-2-oxo-5-phenyl-1,2-dihydropyridin-3-yl}-2,2-difluoro-7-methyl-6,7-dihydro-2H-furo[2,3-f][1,3]benzodioxole-7-carboxamide]	450	85
COc1ccc2c(c1)O[C@@H](c1ccc(C(=O)NCCO)cn1)C[C@H]2NC(=O)[C@@]1(C)COc2cc3c(cc21)OC(F)(F)O3 [Example 244, 6-[(2R,4R)-4-{[(7R)-2,2-difluoro-7-methyl-6,7-dihydro-2H-furo[2,3-f][1,3]benzodioxole-7-carbonyl]amino}-7-methoxy-3,4-dihydro-2H-1-benzopyran-2-yl]-N-(2-hydroxyethyl)pyridine-3-carboxamide]	30	114
COc1ccc2c(c1)O[C@@H](c1ccc(C(C)=O)cn1)C[C@H]2NC(=O)[C@@]1(C)COc2cc3c(cc21)OC(F)(F)O3 [Example 180, (7R)—N-[(2R,4R)-2-(5-acetylpyridin-2-yl)-7-methoxy-3,4-dihydro-2H-1-benzopyran-4-yl]-2,2-difluoro-7-methyl-6,7-dihydro-2H-furo[2,3-f][1,3]benzodioxole-7-carboxamide]	20	124
C[C@]1(C(=O)N[C@@H]2C[C@H](C3(C(=O)N(CCO)CCO)CC3)Oc3cc(OC(F)(F)F)ccc32)COc2cc3c(cc21)OC(F)(F)O3 [Example 279, (7R)—N-[(2R,4R)-2-{1-[bis(2-hydroxyethyl)carbamoyl]cyclopropyl}-7-(trifluoromethoxy)-3,4-dihydro-2H-1-benzopyran-4-yl]-2,2-difluoro-7-methyl-6,7-dihydro-2H-furo[2,3-f][1,3]benzodioxole-7-carboxamide]	560	119
COC(=O)c1cccc(-n2nc(C3CC3)cc(NC(=O)C3(C)COc4cc5c(cc43)OC(F)(F)O5)c2=O)c1 (stereo not drawn) [Example 40, methyl 3-{3-cyclopropyl-5-[(2,2-difluoro-7-methyl-6,7-dihydro-2H-furo[2,3-f][1,3]benzodioxole-7-carbonyl)amino]-6-oxopyridazin-1(6H)-yl}benzoate]	210	132
C[C@]1(C(=O)N[C@@H]2C[C@H](c3ccc(C(=O)O)cc3)Oc3ccccc32)CCc2cc3c(cc21)OC(F)(F)O3 [Example 59, 4-[(2R,4R)-4-{[(5S)-2,2-difluoro-5-methyl-6,7-dihydro-211,51-indeno[5,6-d][1,3]dioxole-5-carbonyl]amino}-3,4-dihydro-2H-1-benzopyran-2-yl]benzoic acid]	2750	50
COc1ccc2c(c1)O[C@@H](c1ccc(Cl)nn1)C[C@H]2NC(=O)[C@@]1(C)COc2cc3c(cc21)OC(F)(F)O3 [Example 195, (7R)—N-[(2R,4R)-2-(6-chloropyridazin-3-yl)-7-methoxy-3,4-dihydro-2H-1-benzopyran-4-yl]-2,2-difluoro-7-methyl-6,7-dihydro-2H-furo[2,3-f][1,3]benzodioxole-7-carboxamide]	340	101
CC1CN(c2cccc(NC(=O)[C@@]3(C)COc4cc5c(cc43)OC(F)(F)O5)n2)CC1C(=O)O (stereo partly drawn) [Example 116, 1-(6-{[(7R)-2,2-difluoro-7-methyl-6,7-dihydro-2H-furo[2,3-f][1,3]benzodioxole-7-carbonyl]amino}pyridin-2-yl)-4-methylpyrrolidine-3-carboxylic acid]	1100	136
COc1ccc2c(c1)O[C@@H](c1ccc(C(=O)N3CCC(O)CC3)cn1)C[C@H]2NC(=O)[C@@]1(C)COc2cc3c(cc21)OC(F)(F)O3 [Example 212, (7R)-2,2-difluoro-N-{(2R,4R)-2-[5-(4-hydroxypiperidine-1-carbonyl)pyridin-2-yl]-7-methoxy-3,4-dihydro-2H-1-benzopyran-4-yl}-7-methyl-6,7-dihydro-2H-furo[2,3-f][1,3]benzodioxole-7-carboxamide]	30	119
CCOC(=O)[C@H]1CC[C@H]([C@H]2C[C@@H](NC(=O)[C@@]3(C)COc4cc5c(cc43)OC(F)(F)O5)c3ccc(OC)cc3O2)CC1 [Example 153, ethyl trans-4-[(2R,4R)-4-{[(7R)-2,2-difluoro-7-methyl-6,7-dihydro-2H-furo[2,3-f][1,3]benzodioxole-7-carbonyl]amino}-7-methoxy-3,4-dihydro-2H-1-benzopyran-2-yl]cyclohexane-1-carboxylate]	304	135
C[C@@]1(C(=O)N[C@@H]2C[C@H]([C@H]3CC[C@H](C(=O)O)CC3)Oc3cc(OC(F)(F)F)ccc32)CCc2cc3c(cc21)OC(F)(F)O3 [Example 169, trans-4-[(2R,4R)-4-{[(5R)-2,2-difluoro-5-methyl-6,7-dihydro-2H,5H-indeno[5,6-d][1,3]dioxole-5-carbonyl]amino}-7-(trifluoromethoxy)-3,4-dihydro-2H-1-benzopyran-2-yl]cyclohexane-1-carboxylic acid]	1260	107
CC(C)(CO)c1cc2cc(NC(=O)[C@@]3(C)COc4cc5c(cc43)OC(F)(F)O5)c(F)cc2[nH]1 [Example 143, (7R)-2,2-difluoro-N-[6-fluoro-2-(1-hydroxy-2-methylpropan-2-yl)-1H-indol-5-yl]-7-methyl-6,7-dihydro-2H-furo[2,3-f][1,3]benzodioxole-7-carboxamide]	490	129
COC(=O)c1ccc(-c2csc(NC(=O)C3(C)COc4cc5c(cc43)OC(F)(F)O5)n2)cc1 (stereo not drawn) [Example 64, methyl 4-{2-[(2,2-difluoro-7-methyl-6,7-dihydro-2H-furo[2,3-f][1,3]benzodioxole-7-carbonyl)amino]-1,3-thiazol-4-yl}benzoate]	7290	46
C[C@]1(C(=O)Nc2cccc(N3CCOC(CO)C3)n2)COc2cc3c(cc21)OC(F)(F)O3 (stereo partly drawn) [Example 87, (7R)-2,2-difluoro-N-{6-[2-(hydroxymethyl)morpholin-4-yl]pyridin-2-yl}-7-methyl-6,7-dihydro-2H-furo[2,3-f][1,3]benzodioxole-7-carboxamide]	1860	100
COc1ccc2c(c1)O[C@@H](c1ccc(C(=O)N3CCCOCC3)cn1)C[C@H]2NC(=O)[C@@]1(C)COc2cc3c(cc21)OC(F)(F)O3 [Example 219, (7R)-2,2-difluoro-N-{(2R,4R)-7-methoxy-2-[5-(1,4-oxazepane-4-carbonyl)pyridin-2-yl]-3,4-dihydro-2H-1-benzopyran-4-yl}-7-methyl-6,7-dihydro-2H-furo[2,3-f][1,3]benzodioxole-7-carboxamide]	30	105
CC1(C(=O)Nc2cccc(F)n2)COc2cc3c(cc21)OC(F)(F)O3 (stereo not drawn) [Example 67, 2,2-difluoro-N-(6-fluoropyridin-2-yl)-7-methyl-6,7-dihydro-2H-furo[2,3-f][1,3]benzodioxole-7-carboxamide]	8390	70
COc1ccc2c(c1)O[C@@H](c1ccc(C(=O)N3CCN(S(N)(=O)=O)CC3)cn1)C[C@H]2NC(=O)[C@@]1(C)COc2cc3c(cc21)OC(F)(F)O3 [Example 233, (7R)-2,2-difluoro-N-{(2R,4R)-7-methoxy-2-[5-(4-sulfamoylpiperazine-1-carbonyl)pyridin-2-yl]-3,4-dihydro-2H-1-benzopyran-4-yl}-7-methyl-6,7-dihydro-2H-furo[2,3-f][1,3]benzodioxole-7-carboxamide]	50	112
4-[(2R,4S,6R)-4-{[(7R)-2,2-difluoro-7-methyl-6,7-dihydro-2H-furo[2,3-f][1,3]benzodioxole-7-carbonyl]amino}-6-methyloxan-2-yl]benzoic acid and 4-[(2S,4R,6S)-4-{[(7R)-2,2-difluoro-7-methyl-6,7-dihydro-2H-furo[2,3-f][1,3]benzodioxole-7-carbonyl]amino}-6-methyloxan-2-yl]benzoic acid [Example 43]	2510	93
